Source: ChEMBL document CHEMBL3774354, “Discovery of Selective Histone Deacetylase 6 Inhibitors Using the Quinazoline as the Cap for the Treatment of Cancer” (J Med Chem, 2016)
pEC50, pIC50: −log10 of the molar value. Values belong to the compound of their own block, whether it stands above or below them. Activity calls are given as the source filed them. No cut-off for these calls is given here.

Legend:
A-375 = experiment: Antiproliferative activity against human A375 cells after 72 hrs by MTT assay; format: functional, cell-based; conditions: A-375, 72 h
[1] = molecular target: T1, Protein deacetylase HDAC6 (Homo sapiens, UniProt Q9UBN7); experiment: Inhibition of HDAC6 in human HeLa cells assessed as induction of tubulin acetylation incubated for 6 hrs by cytoblot assay; format: cell-based
T1 sequence (Q9UBN7 whole entry): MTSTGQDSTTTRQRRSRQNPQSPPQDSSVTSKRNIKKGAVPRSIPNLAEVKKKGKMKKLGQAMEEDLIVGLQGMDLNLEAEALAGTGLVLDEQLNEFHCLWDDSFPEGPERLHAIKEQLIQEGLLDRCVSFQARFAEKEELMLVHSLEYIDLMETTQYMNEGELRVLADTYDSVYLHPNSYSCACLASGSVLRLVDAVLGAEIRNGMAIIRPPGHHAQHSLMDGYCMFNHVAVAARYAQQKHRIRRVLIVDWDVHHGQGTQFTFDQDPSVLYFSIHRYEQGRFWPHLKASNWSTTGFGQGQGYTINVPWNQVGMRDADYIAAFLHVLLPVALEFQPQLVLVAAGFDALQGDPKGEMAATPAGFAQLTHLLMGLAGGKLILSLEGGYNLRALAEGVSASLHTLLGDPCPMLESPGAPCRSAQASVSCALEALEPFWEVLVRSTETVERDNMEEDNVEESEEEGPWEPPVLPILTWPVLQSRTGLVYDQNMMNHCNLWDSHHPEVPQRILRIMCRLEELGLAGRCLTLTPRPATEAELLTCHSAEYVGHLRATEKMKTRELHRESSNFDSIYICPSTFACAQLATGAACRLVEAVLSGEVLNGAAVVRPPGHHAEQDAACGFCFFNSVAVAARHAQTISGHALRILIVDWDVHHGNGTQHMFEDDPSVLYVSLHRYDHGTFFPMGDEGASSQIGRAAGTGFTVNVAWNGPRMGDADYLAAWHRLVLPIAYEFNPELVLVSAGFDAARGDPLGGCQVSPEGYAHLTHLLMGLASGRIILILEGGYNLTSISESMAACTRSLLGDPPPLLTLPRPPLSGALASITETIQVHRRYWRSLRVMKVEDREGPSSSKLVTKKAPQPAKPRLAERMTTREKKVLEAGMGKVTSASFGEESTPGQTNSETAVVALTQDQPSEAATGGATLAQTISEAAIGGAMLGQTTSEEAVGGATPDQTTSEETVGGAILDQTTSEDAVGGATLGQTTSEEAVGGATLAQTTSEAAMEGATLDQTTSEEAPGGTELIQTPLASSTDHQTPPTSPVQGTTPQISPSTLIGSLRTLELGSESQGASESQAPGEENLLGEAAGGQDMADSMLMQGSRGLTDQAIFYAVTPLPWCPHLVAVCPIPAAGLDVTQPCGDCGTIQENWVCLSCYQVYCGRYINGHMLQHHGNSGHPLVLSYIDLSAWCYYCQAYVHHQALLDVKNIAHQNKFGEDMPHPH

HeLa [2] = experiment: Induction of histone H3 acetylation in human HeLa cells incubated for 6 hrs by cytoblot assay; format: functional, cell-based
HeLa [3] = experiment: Antiproliferative activity against human HeLa cells after 72 hrs by MTT assay; format: functional, cell-based
Mus musculus [4] = experiment: Toxicity in NOD/SCID mouse xenografted with human Ramos cells assessed as change in body weight at 10 mg/kg, ip q2d for 6 days; conditions: in vivo, 144 h
Ramos [5] = experiment: Antitumor activity against human Ramos cells xenografted in NOD/SCID mouse assessed as tumor mass change at 10 mg/kg, ip q2d for 6 days; format: functional
[6] = molecular target: T1, Protein deacetylase HDAC6
Description: Inhibition of human recombinant HDAC6 using AMC labeled AC-peptide as substrate incubated for 1 hr by fluorescence analysis

Histone deacetylase 1 = Histone deacetylase 1 (Homo sapiens, UniProt Q13547)
Description: Inhibition of human recombinant HDAC1 using AMC labeled AC-peptide as substrate incubated for 1 hr by fluorescence analysis

Histone deacetylase 8 = molecular target: T2, Histone deacetylase 8 (Homo sapiens, UniProt Q9BY41)
T2 sequence (Q9BY41 whole entry): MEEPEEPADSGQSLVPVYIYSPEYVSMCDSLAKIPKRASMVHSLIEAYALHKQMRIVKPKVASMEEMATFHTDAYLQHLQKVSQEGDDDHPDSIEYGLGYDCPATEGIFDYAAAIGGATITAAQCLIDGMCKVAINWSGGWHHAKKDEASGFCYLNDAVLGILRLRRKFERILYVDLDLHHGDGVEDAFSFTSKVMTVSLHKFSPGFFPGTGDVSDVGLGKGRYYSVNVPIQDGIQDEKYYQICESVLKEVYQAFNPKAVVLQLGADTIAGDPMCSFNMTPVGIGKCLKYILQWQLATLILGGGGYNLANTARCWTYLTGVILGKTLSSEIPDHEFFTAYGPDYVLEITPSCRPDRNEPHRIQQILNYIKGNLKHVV
Description: Inhibition of human recombinant HDAC8 using AMC labeled AC-peptide as substrate incubated for 1 hr by fluorescence analysis

[7] = Cytotoxicity against human U266 cells after 72 hrs by MTT assay; format: functional, cell-based; conditions: U-266, 72 h
[8] = Cytotoxicity against human RPMI8226 cells after 72 hrs by MTT assay; format: functional, cell-based; conditions: RPMI-8226, 72 h
Ramos [9] = experiment: Cytotoxicity against human Ramos cells after 72 hrs by MTT assay; format: functional, cell-based
[10] = Cytotoxicity against human H460 cells after 72 hrs by MTT assay; format: functional, cell-based; conditions: NCI-H460, 72 h
[11] = Cytotoxicity against human SKBR3 cells after 72 hrs by MTT assay; format: functional, cell-based; conditions: SK-BR-3, 72 h
[12] = molecular target: Histone deacetylase 1/2/3 (Homo sapiens) (UniProt Q13547+O15379+Q92769); conditions: MV4-11, 1000 nM
Description: Inhibition of HDAC1/2/3 in human MV4-11 cells assessed as upregulation of histone H3 acetylation at 1000 nM after 6 hrs by Western blot analysis

[13] = molecular target: Histone deacetylase 11 (Homo sapiens) (UniProt Q96DB2); experiment: Inhibition of recombinant HDAC11 (unknown origin) using AMC labeled AC-peptide as substrate at 10 uM incubated for 1 hr by fluorescence analysis
K562 = experiment: Cytotoxicity against human K562 cells after 72 hrs by MTT assay; format: functional, cell-based; conditions: K562, 72 h
Mus musculus [14] = experiment: Toxicity in NOD/SCID mouse xenografted with human Ramos cells assessed as death at 40 mg/kg, po q2d for 6 days; format: organism-based; conditions: in vivo, 144 h
Histone deacetylase 9 = Histone deacetylase 9 (Homo sapiens, UniProt Q9UKV0); experiment: Inhibition of recombinant HDAC9 (unknown origin) using AMC labeled AC-peptide as substrate at 10 uM incubated for 1 hr by fluorescence analysis
HepG2 = experiment: Cytotoxicity against human HepG2 cells after 72 hrs by MTT assay; format: functional, cell-based; conditions: HepG2, 72 h
[15] = Cytotoxicity against human HCT116 cells after 72 hrs by MTT assay; format: functional, cell-based; conditions: HCT-116, 72 h
Histone deacetylase 5 = Histone deacetylase 5 (Homo sapiens, UniProt Q9UQL6); experiment: Inhibition of recombinant HDAC5 (unknown origin) using AMC labeled AC-peptide as substrate at 10 uM incubated for 1 hr by fluorescence analysis
[16] = molecular target: Histone deacetylase 7 (Homo sapiens) (UniProt Q8WUI4); experiment: Inhibition of recombinant HDAC7 (unknown origin) using AMC labeled AC-peptide as substrate at 10 uM incubated for 1 hr by fluorescence analysis
HT-29 = experiment: Cytotoxicity against human HT-29 cells after 72 hrs by MTT assay; format: functional, cell-based; conditions: HT-29, 72 h
[17] = molecular target: T3, Protein deacetylase HDAC6 (Homo sapiens) (UniProt Q9UBN7); experiment: Inhibition of HDAC6 in human HCT116 cells assessed as upregulation of alpha- tubulin acetylation after 6 hrs by Western blot analysis; format: cell-based; conditions: HCT-116
T3 sequence (whole entry): T1 sequence (Q9UBN7 whole entry)

MV4-11 = experiment: Cytotoxicity against human MV4-11 cells after 72 hrs by MTT assay; format: functional, cell-based; conditions: MV4-11, 72 h
A549 = experiment: Cytotoxicity against human A549 cells after 72 hrs by MTT assay; format: functional, cell-based; conditions: A549, 72 h
[18] = molecular target: T3, Protein deacetylase HDAC6 (Homo sapiens); experiment: Inhibition of HDAC6 in human MV4-11 cells assessed as upregulation of alpha- tubulin acetylation after 6 hrs by Western blot analysis; format: cell-based
A2780 = experiment: Cytotoxicity against human A2780 cells after 72 hrs by MTT assay; format: functional, cell-based; conditions: A2780, 72 h
[19] = Cytotoxicity against human SKOV3 cells after 72 hrs by MTT assay; format: functional, cell-based; conditions: SK-OV-3, 72 h

Histone deacetylase 1, sequence (Q13547 whole entry): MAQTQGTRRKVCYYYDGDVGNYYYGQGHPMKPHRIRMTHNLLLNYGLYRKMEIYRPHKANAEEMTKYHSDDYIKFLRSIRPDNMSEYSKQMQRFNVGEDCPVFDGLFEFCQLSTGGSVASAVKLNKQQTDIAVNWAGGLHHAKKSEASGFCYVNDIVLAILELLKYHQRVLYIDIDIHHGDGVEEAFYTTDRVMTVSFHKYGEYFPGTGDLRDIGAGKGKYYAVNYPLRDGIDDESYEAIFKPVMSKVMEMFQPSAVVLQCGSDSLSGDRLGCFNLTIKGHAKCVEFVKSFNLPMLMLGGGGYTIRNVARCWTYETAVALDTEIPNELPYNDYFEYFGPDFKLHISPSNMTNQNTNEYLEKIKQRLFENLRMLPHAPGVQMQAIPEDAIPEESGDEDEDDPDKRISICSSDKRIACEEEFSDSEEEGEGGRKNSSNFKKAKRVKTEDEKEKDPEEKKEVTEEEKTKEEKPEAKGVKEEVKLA
Histone deacetylase 5, sequence (Q9UQL6 whole entry): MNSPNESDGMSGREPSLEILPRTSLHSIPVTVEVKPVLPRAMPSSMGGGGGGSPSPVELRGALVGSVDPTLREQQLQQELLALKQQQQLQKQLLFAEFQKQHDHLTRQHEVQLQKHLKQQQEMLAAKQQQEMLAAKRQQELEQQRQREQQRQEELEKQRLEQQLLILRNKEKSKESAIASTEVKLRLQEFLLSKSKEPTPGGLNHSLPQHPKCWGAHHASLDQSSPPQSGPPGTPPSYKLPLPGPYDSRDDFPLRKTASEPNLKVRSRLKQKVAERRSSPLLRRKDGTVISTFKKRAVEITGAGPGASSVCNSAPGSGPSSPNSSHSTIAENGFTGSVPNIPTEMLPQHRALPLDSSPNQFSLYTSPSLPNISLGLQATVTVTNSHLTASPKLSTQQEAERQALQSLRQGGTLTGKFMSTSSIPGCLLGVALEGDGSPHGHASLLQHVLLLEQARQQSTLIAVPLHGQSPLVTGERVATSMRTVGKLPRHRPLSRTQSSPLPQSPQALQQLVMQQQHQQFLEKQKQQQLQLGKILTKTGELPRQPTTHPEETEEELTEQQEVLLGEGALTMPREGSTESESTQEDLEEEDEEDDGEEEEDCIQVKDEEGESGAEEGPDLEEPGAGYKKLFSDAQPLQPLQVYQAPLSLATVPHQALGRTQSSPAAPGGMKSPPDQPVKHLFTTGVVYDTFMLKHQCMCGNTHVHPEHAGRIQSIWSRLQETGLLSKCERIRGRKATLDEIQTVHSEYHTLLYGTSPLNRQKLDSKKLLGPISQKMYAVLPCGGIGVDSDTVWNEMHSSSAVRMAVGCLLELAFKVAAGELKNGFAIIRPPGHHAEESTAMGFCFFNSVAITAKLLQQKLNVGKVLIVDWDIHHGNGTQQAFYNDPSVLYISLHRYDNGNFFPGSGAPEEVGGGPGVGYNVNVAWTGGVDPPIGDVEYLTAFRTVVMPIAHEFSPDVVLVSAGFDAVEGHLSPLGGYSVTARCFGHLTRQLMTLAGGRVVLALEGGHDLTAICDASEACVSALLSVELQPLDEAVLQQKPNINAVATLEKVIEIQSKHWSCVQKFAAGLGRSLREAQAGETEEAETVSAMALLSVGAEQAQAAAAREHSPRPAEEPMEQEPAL
Histone deacetylase 9, sequence (Q9UKV0 whole entry): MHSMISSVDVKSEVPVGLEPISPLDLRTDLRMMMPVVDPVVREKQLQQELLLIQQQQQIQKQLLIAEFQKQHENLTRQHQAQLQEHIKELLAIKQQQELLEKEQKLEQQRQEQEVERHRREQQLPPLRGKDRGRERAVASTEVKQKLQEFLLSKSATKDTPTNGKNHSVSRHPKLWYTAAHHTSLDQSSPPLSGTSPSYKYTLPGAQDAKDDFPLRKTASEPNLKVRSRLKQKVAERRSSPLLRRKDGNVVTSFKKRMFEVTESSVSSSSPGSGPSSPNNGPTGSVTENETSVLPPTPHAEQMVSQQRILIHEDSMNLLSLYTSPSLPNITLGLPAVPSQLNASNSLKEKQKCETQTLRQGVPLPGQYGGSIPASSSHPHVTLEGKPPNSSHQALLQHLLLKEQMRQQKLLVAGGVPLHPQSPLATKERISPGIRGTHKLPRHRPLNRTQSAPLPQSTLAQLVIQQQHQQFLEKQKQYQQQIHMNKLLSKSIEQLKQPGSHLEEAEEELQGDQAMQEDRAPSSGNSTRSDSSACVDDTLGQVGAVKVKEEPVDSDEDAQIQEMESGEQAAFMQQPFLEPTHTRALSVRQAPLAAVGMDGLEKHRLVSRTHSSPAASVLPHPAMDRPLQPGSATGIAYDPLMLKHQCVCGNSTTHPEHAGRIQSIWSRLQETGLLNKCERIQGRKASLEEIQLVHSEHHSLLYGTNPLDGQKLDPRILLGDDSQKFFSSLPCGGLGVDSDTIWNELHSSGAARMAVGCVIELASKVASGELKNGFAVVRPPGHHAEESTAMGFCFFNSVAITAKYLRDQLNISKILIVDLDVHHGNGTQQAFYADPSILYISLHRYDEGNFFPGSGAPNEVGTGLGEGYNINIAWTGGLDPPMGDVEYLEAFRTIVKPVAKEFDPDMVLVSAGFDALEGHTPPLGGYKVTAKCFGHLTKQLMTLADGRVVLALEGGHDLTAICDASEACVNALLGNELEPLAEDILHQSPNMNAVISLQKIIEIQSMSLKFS
Histone deacetylase 11 (Homo sapiens), sequence (Q96DB2 whole entry): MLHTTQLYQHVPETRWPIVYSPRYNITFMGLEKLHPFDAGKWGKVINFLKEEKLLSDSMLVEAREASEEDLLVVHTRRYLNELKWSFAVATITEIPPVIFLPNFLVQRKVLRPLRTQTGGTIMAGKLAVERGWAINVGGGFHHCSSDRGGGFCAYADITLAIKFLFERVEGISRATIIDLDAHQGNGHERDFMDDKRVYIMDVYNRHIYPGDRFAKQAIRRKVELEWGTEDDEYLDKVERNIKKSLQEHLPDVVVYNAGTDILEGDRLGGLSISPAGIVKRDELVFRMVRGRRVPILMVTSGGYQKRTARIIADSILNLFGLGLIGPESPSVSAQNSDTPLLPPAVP
Histone deacetylase 7 (Homo sapiens), sequence (Q8WUI4 whole entry): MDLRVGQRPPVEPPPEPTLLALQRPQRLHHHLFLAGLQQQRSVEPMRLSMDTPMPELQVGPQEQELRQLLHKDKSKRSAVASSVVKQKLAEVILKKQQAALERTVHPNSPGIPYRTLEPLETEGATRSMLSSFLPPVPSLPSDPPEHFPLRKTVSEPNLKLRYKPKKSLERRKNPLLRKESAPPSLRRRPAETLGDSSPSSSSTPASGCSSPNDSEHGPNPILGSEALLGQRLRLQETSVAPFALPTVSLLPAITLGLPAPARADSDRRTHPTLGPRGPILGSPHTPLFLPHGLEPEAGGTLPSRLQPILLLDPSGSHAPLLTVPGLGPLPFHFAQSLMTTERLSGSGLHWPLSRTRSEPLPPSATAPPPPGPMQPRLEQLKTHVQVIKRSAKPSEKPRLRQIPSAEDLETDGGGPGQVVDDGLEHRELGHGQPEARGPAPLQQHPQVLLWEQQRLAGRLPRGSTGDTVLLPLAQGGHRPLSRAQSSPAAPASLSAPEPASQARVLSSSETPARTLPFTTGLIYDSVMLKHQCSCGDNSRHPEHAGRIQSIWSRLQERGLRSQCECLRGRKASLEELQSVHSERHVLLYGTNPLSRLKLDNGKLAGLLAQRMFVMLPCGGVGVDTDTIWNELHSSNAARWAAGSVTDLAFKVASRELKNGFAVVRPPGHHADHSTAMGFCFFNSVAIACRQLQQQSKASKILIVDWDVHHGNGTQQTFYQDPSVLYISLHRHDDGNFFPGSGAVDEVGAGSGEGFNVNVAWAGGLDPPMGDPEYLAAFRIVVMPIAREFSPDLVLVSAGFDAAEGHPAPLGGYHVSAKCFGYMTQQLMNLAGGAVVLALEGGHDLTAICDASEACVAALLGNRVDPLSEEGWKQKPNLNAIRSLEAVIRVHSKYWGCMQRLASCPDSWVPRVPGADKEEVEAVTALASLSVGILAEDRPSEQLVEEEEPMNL

SMILES: Cc1[nH]c2ccccc2c1CCNCc1ccc(/C=C/C(=O)NO)cc1 [PANOBINOSTAT]
Activity (Mus musculus [4]): -1.9%
Activity (Ramos [5]): 16.6%

SMILES: Cc1nc2c(c(N(C)c3ccc(OCCCCCC(=O)NO)cc3)n1)CCC2
pIC50 [6]: 7.70
pIC50 (Histone deacetylase 1): 6.92
pIC50 (Histone deacetylase 8): 6.00

SMILES: COc1ccc(Nc2nc(C)nc3ccccc23)cc1OCCCC(=O)NO
pIC50 [6]: < 6.00
pIC50 (Histone deacetylase 1): < 6.00
pIC50 (Histone deacetylase 8): < 6.00

SMILES: COc1ccc(N(C)c2nc(C)nc3ccccc23)cc1OCCCCCC(=O)NO
pIC50 [6]: 7.64
pIC50 (Histone deacetylase 1): 6.80
pIC50 (Histone deacetylase 8): 5.82

SMILES: Cc1nc2c(c(N(C)c3ccc(OCC(=O)NO)cc3)n1)CCC2
pIC50 (A-375): 5.55
pEC50 [1]: 7.29
pIC50 [6]: 7.77
pEC50 (HeLa [2]): 5.75
pIC50 (HeLa [3]): 5.65
pIC50 (Histone deacetylase 1): 6.58
pIC50 (Histone deacetylase 8): 5.53

SMILES: O=C(CCCCCCNC(=O)c1cnc(N(c2ccccc2)c2ccccc2)nc1)NO [RICOLINOSTAT]
pIC50 [7]: < 5.30
pIC50 [8]: 5.83
pIC50 (Ramos [9]): < 5.30
pIC50 [10]: < 5.30
pIC50 [11]: < 5.30
inhibition [12]: Active
inhibition [13]: inactive
pIC50 (K562): < 5.30
Activity (Mus musculus [14]): Non-toxic
inhibition (Histone deacetylase 9): inactive
pIC50 (HepG2): < 5.30
pIC50 [15]: < 5.30
inhibition (Histone deacetylase 5): inactive
inhibition [16]: inactive
pIC50 (HeLa [3]): < 5.30
pIC50 (HT-29): < 5.30
inhibition [17]: Dose-dependent effect
pIC50 (MV4-11): < 5.30
pIC50 (A549): < 5.30
inhibition [18]: Dose-dependent effect
pIC50 (A2780): < 5.30
pIC50 [19]: < 5.30

Now from value to compound:

pIC50 (A-375): 6.67
pEC50 [1]: 7.58
pEC50 (HeLa [2]): 6.34
pIC50 (HeLa [3]): 6.77
SMILES: Cc1nc(N(C)c2ccc(OCC(=O)NO)cc2)c2ccccc2n1

pIC50 (A-375): 6.36
pEC50 [1]: 7.31
pIC50 [6]: 7.85
pEC50 (HeLa [2]): 5.90
pIC50 (HeLa [3]): 6.42
pIC50 (Histone deacetylase 1): 6.62
pIC50 (Histone deacetylase 8): 5.85
SMILES: CN(c1ccc(OCC(=O)NO)cc1)c1ncnc2ccccc12

pIC50 [6]: < 6.00
pIC50 (Histone deacetylase 1): 7.14
pIC50 (Histone deacetylase 8): < 6.00
SMILES: Cc1nc(N(C)c2cccc(OCCCCCC(=O)NO)c2)c2ccccc2n1
